Reference: US5258386A (priority 1991, dated 1993)

Tests used:
[1] = system: maximal electroshock seizures (MES); experiment: Maximal electroshock seizure (MES) assay in rats, s.c. injection, tonic hindlimb extension (THE); type: in vivo, Male Sprague-Dawley rats; settings: for % Responding (THE): s.c.; for ED50: sc, read-out: Anticonvulsant ED50
Protocol: The anticonvulsant activity of the present compounds was assessed by the method of inducing maximal electroshock seizures (MES) in rats using the standard testing protocol conditions hereinafter described:
Animals. Male Sprague-Dawley rats weighing 200-250 g obtained from Zivic Miller Laboratories, Alison Park, Pa., were used for all experiments. Upon delivery the animals were kept in individual pens housed in a temperature controlled laboratory. A standard 12-hour light-dark cycle was maintained. The animals were given food and water ad libitum.
Maximal electroshock seizure (MES) assay. Supramaximal (tonic hindlimb extension) seizures were induced in test rats by means of an electric shock apparatus. A current of 60 Hz and 50 mA was delivered transauricularly through miniature alligator clips attached to the pinna of each ear for 2.0 seconds. […] In general, MES causes a generalized convulsion characterized by an initial tonic forelimb extension (TFE) progressing immediately to tonic hindlimb extension (THE) followed by clonic jerking. The presence or absence of THE was recorded for each MES convulsion.
Experimental protocol. Two groups of animals with n=10 for each group were tested under the conditions described above. Compounds were administered to each test animal by a single subcutaneous injection. There were no signs of overt sedation, ataxia or motor impairment at any time during the MES assay after drug injection.

[2] = elevated doses; cited from earlier work
[3] = in vivo; cited from earlier work
[4] = U.S. Pat. No. 4,552,962; cited from earlier work
[5] = U.S. Pat. Nos. 4,898,860 and 4,906,638; cited from earlier work
[6] = in vivo, demethylation; dextrorphan is the major metabolite in man; cited from earlier work
[7] = Proconvulsant activity of dextromethorphan; settings: doses above about 60 mg/kg, in mammals
[8] = in vivo; cited from earlier work; remark: listed apart in the source

With COc1ccc2c(c1)[C@@]13CCCC[C@H]1[C@@H](C2)N(C)CC3 [Compound 1, (+)-3-methoxy-N-methylmorphinan] the “% Responding (THE)” value ([1]; 15 mg/kg, rat MES) was 70%, the “% Responding (THE)” value ([1]; 30 mg/kg, rat MES) was 70% and the “% Responding (THE)” value ([1]; 60 mg/kg, rat MES) was 30%. The inhibits seizures ([1]; about 60 mg/kg) was “about 70%”, the ED50 ([1]; rat MES, single s.c. injection) was 38 mg/kg and the proconvulsant [2] was “becomes proconvulsant”. The anticonvulsant activity [3] was “not very potent as an anticonvulsant agent”, the antitussive activity [4] was “potent antitussive agent” and the “potentiating effect on antiepileptic or antiseizure compounds” value [5] was “potentiating effect”. The metabolism to dextrorphan [6] was “metabolizes rapidly by demethylation in vivo” and the proconvulsant activity [7] was “exhibits proconvulsant activity”.

For CN1CC[C@]23CCCC[C@H]2[C@H]1Cc1ccc(O)cc13 [Compound 2, (+)-3-hydroxy-N-methylmorphinan], the “Anticonvulsant ED50” value ([1]; rat MES, single s.c. injection) is listed as 5 mg/kg, the behavioral side effects [8] is listed as “harmful behavioral side effects” and the anticonvulsant activity [3] is listed as “some anticonvulsant activity”.

In the case of CN(C)c1ccc2c(c1)C13CCCCC1C(C2)N(C)CC3 (single isomer, unassigned; (+)) [Compound 7, (+)-3,3-Dimethylamino-17-methylmorphinan sesquitartrate], the “% Responding (THE)” value ([1]; 25 mg/kg, rat MES) is reported as 65% and the ED50 ([1]; rat MES, single s.c. injection) is reported as greater than 25 mg/kg.

For CN1CC[C@]23CCCC[C@H]2[C@H]1Cc1ccc(N)cc13.Cl.Cl [Compound 5, (+)-3-Amino-17-methylmorphinan di-HCl], the “% Responding (THE)” value ([1]; 12.5 mg/kg, rat MES) was 100%, the “% Responding (THE)” value ([1]; 25 mg/kg, rat MES) was 40% and the ED50 ([1]; rat MES, single s.c. injection) was 25 mg/kg.
